This data set can be described thus: Solubility test in buffers of different pHs (excess salt, HPLC determination of dissolved letermovir, final pH of mixture). Format: physicochemical. Conditions: for Solubility / solubility at 2 h: stirred two hours at room temperature; for Solubility / Final pH / solubility at 2 h: Entries 1-3; for Final pH: final mixture; for solubility at 2 h: thermodynamic from solid. The procedure: Single Crystal X-ray Diffraction (SCXRD): The measured crystal was selected using a Zeiss stereomicroscope using polarized light and prepared under inert conditions immersed in perfluoropolyether as protecting oil for manipulation. Crystal structure determination was carried out using a Rigaku diffractometer equipped with a Pilatus 200K area detector, a Rigaku MicroMax-007HF microfocus rotating anode with MoKα radiation, Confocal Max Flux optics and an Oxford Cryosystems low temperature device Cryostream 700 plus (T=−173° C.). Full-sphere data collection was used with ω and φ scans. Programs used: Data collection and reduction with CrysAlisPro (Rigaku OD, 2015). V/0.60 A and absorption correction with Scale3 Abspack scaling algorithm (CrysAlisPro 1.171.39.12b (Rigaku OD, 2015)). Crystal structure solution was achieved using the computer program SHELXT (Sheldrick, G. M. Acta Cryst. 2015 A71, 3-8.) and visualized using the program SHELXle (C. B. Huebschle, G. M. Sheldrick & B. Dittrich; J. Appl. Cryst., 2011 44, 1281-1284). Missing atoms were subsequently located from difference Fourier synthesis and added to the atom list. Least-squares refinement on F0^2 using all measured intensities was carried out using the program SHELXL 2015 (SHELXL; Sheldrick, G. M. Acta Cryst., 2015 A71, 3-8.). All non-hydrogen atoms were refined including anisotropic displacement parameters. High Performance Liquid Chromatography (HPLC): • Instrument: Thermo Scientific Ultimate 3000 UHPLC • Column: Agilent Zorbax Eclipse XDB C-18, 150×4.6 mm, 5 μm • Flow rate: 1.0 ml/min • Solvent A: 0.1% formic acid in water • Solvent B: 0.1% formic acid in 100% methanol • Stop time: 27 minutes • Injection volume: 10 μl • Column temperature: 35° C. • Wavelength: 260 nm • Autosampler temperature: 10° C.
An excess of letermovir potassium mixed solvate (the salt of Example 1) or letermovir sodium mixed solvate (the salt of Example 4) was added to 2 mL of the corresponding buffer of different pHs. The saturated suspensions were stirred for two hours at room temperature. […] The final pH of the mixtures was also determined.

The structures appear in SMILES notation. Where “and” joins values, the source holds several entries; their conditions need not be identical. Equal entries are not always repeated. Some results are limits rather than exact numbers.

For `COc1cccc(N2CCN(C3=Nc4c(F)cccc4[C@H](CC(=O)[O-])N3c3cc(C(F)(F)F)ccc3OC)CC2)c1.[K+]` [crystalline potassium salt of letermovir, potassium 2-[(4S)-8-fluoro-2-[4-(3-methoxyphenyl)piperazin-1-yl]-3-[2-methoxy-5-(trifluoromethyl)phenyl]-4H-quinazolin-4-yl]acetate], under “aqueous medium, when letermovir concentration is above 100 mg/mL”, the “pH of the final solution” value was 7.4-7.8 and 7-8. Further, the “concentration levels achieved by dissolving in aqueous medium” value (aqueous medium, with respect to letermovir free base) is recorded as “above 100 mg/mL”.
For the molecule `COc1cccc(N2CCN(C3=Nc4c(F)cccc4[C@H](CC(=O)[O-])N3c3cc(C(F)(F)F)ccc3OC)CC2)c1.[K+]` (mixture of isomers) [potassium salt mixed solvate, potassium 2-[(4S)-8-fluoro-2-[4-(3-methoxyphenyl)piperazin-1-yl]-3-[2-methoxy-5-(trifluoromethyl)phenyl]-4H-quinazolin-4-yl]acetate], the Solubility reads like this: (buffer pH 2) 10.63 mg/mL; (buffer pH 5) 16.50 mg/mL; (buffer pH 6) 1.17 mg/mL. Besides, the “Final pH” value is, setting by setting: (initial buffer pH 1) 4.5 and 6.6; (initial buffer pH 2) 7.2 and 7.3; (initial buffer pH 5) 7.1 and 7.2; (initial buffer pH 6) 6.3; (initial buffer pH 7) 7.1 and 7.0 and 7.4; (initial buffer pH 8) 7.7 and 7.6. The “Final pH” value (initial buffer pH 9) is reported as 7.7. Further, the solubility at 2 h runs as follows: (pH 2, simulated gastric fluid, buffer pH 2) 14.4 mg/mL; (pH 5, aqueous buffer, buffer pH 5) 14.3 mg/mL; (pH 6, aqueous buffer, buffer pH 6) 1.27 mg/mL; (pH 8, aqueous buffer, buffer pH 8) greater than 100 mg/mL; (pH 9, aqueous buffer, buffer pH 9) greater than 100 mg/mL.

Values taken from patent US12698262B2, “Potassium salt of 2-[(4S)-8-fluoro-2-[4-(3-methoxyphenyl)piperazin-1-yl]-3-[2-methoxy-5-(trifluoromethyl)phenyl]-4H-quinazolin-4-yl]acetic acid” (AIC246 AG & Co. KG, priority 2020, dated 2026).
